# Values joined by “and” are separate entries in the source; they are usually repeats but may differ in a detail not shown here. Equal entries are not always repeated. Where two headings read alike, the source gives them in different places. Non-standard residues stand in square brackets, D forms with d. Residues, ends and D or L forms follow the SMILES beside them. *: point of attachment. Phe(3,4,5-F3) = N[C@@H](Cc1cc(F)c(F)c(F)c1)C(=O)O; Myristoyl = CCCCCCCCCCCCCC(=O)*; pGlu = O=C1CC[C@@H](C(=O)O)N1; Nle = CCCC[C@H](N)C(=O)O; Abu = CC[C@H](N)C(=O)O; Aib = CC(C)(N)C(=O)O
# Legend:
# Design in all cases: host or cells: CHO-K1
# human apelin receptor [1] = molecular target: T1, human apelin receptor (Homo sapiens, UniProt P35414); assay: DRx β-arrestin assay (PathHunter eXpress AGTRL1 CHO-K1); format: cell-based; settings: for Kb: DRx β-Arrestin pA2; for DRx β-Arrestin pA2: cho-k1 cells, 90 min
# T1 sequence (P35414 1-380): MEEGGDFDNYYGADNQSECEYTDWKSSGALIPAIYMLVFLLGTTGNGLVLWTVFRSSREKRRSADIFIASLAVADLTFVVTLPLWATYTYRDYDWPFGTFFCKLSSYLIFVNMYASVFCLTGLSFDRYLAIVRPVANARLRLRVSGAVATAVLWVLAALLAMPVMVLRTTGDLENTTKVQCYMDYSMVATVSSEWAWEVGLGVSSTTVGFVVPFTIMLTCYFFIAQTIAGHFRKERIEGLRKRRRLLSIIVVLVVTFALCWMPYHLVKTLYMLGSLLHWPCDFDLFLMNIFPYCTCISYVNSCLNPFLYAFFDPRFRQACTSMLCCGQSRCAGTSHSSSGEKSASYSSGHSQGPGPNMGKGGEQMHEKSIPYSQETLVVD
# Experimental: (§1) cAMP (cAMP Hunter™ eXpress AGTRL1 CHO-K1 GPCR Assay, DiscoverX Corporation, Ltd. Birmingham, UK) and β-arrestin (PathHunter® eXpress AGTRL1 CHO-K1 β-Arrestin GPCR Assay, DiscoverX Corporation, Ltd. Birmingham, UK) assays were performed according to the manufacturer's instructions. The cAMP assay measures the canonical signalling pathway through the G-protein. The β-arrestin assay measures the alternative signalling pathway and receptor internalisation.
# For recruitment of β-arrestin, CHO-K1 cells artificially expressing the human apelin receptor were seeded in Cell Plating medium into 96-well plates and incubated for 48 hours at 37° C. in 5% CO2. Concentration response curves were constructed to test peptides (1 pmol/L-30 μmol/L) which were diluted in Cell Plating medium and added to the cells for 90 minutes at 37° C. If no response was obtained then test peptides were investigated as antagonists. […] Detection reagents were then added for a 2-hour incubation at room temperature. […] If no agonist response was obtained, test compounds were investigated for antagonist activity by repeating [Pyr]apelin-13 concentration response curves in the absence and presence of a single concentration (1-30 μmol/L of test peptide). Data were analysed as described for the cAMP assay using the Gaddum/Schild EC50 function in GraphPad Prism 6 to determine values of pA2.
# human apelin receptor [2] = molecular target: T1, human apelin receptor; assay: DRx cAMP assay (cAMP Hunter eXpress AGTRL1 CHO-K1), forskolin-induced cAMP accumulation; format: cell-based; settings: DRx cAMP pA2, antagonism of [Pyr1]apelin-13 inhibition of forskolin-stimulated cAMP
# Experimental: Antagonist activity at the apelin receptor was measured in two assays.
# as §1
# Cells were then incubated with a mixture of Lysis Buffer, cAMP Buffer D and Detection Reagents for 1 hour at room temperature, followed by a 3 hour incubation with cAMP Reagent A at room temperature. Chemiluminescence was read using the LumiLITE™ Microplate Reader (DiscoverX). Concentration-response data for agonists, measured in relative light units (RLU), were analysed using a 4 parameter logistic equation in GraphPad Prism 6 (La Jolla, CA, USA) to determine values of potency expressed as the pD2 value (negative logo of the EC50 (where EC50 is the concentration producing half maximal response)), and maximum response (EMAX). Mean data from replicate experiments were normalised as percentage inhibition of forskolin-stimulated cAMP production.
# human apelin receptor [3] = molecular target: T1, human apelin receptor; assay: Cerep radioligand binding assay on CHO-K1 cells expressing the human apelin receptor
# Experimental: Binding assays were performed by Cerep (Celle L'Evescault, France) on Chinese Hamster Ovary (CHO-K1) cells expressing the human apelin receptor. […] The results were expressed as a percent of control specific binding ((measured specific binding/control specific binding)×100) and as a percent inhibition of control specific binding (100−((measured specific binding/control specific binding)×100)) obtained in the presence of the test compounds. […] The inhibition constants (Ki) were calculated using the Cheng Prusoff equation (Ki=IC50/(1+(L/KD)), where L=concentration of radioligand in the assay, and KD=equilibrium dissociation constant of the radioligand for the receptor).
# [4] = [Glp65,Nle75,Tyr77][125I]apelin-13, read-out: Ki (binding affinity at the apelin receptor, Cerep)
SMILES,Kb (human apelin receptor [1]),DRx β-Arrestin pA2 (human apelin receptor [1]),Kb (human apelin receptor [2]),Ki (human apelin receptor [3]; [4]),"Ki (human apelin receptor [3]; Ki (binding affinity at the apelin receptor, Cerep), [Glp65,Nle75,Tyr77][125I]apelin-13) [µM]"
CC(C)C[C@H](NC(=O)[C@H](CCCNC(=N)N)NC(=O)[C@@H]1CCCN1C(=O)[C@H](CCCNC(=N)N)NC(=O)[C@H](CS)NC(=O)[C@H](CCCCN)NC(=O)[C@H](Cc1c[nH]cn1)NC(=O)[C@H](CS)NC(=O)[C@H](CC(C)C)NC(=O)[C@H](CCCNC(=N)N)NC(=O)[C@@H]1CCCN1C(=O)[C@H](CCCNC(=N)N)NC(=O)[C@@H](N)CS)C(=O)N[C@@H](CS)C(=O)O [MM107] (H-CRPRLCHKCRPRLC-OH; N-terminus and C-terminus assumed),0.0575 µM,pA2 = 7.24,4.68 µM and 0.575 µM,–,–
CC(C)C[C@H](NC(=O)[C@H](CCCNC(=N)N)NC(=O)[C@@H]1CCCN1C(=O)[C@H](CCCNC(=N)N)NC(=O)[C@H](CS)NC(=O)[C@H](Cc1c[nH]cn1)NC(=O)[C@H](CCCCN)NC(=O)[C@H](CS)NC(=O)[C@H](CC(C)C)NC(=O)[C@H](CCCNC(=N)N)NC(=O)[C@@H]1CCCN1C(=O)[C@H](CCCNC(=N)N)NC(=O)[C@@H](N)CS)C(=O)N[C@@H](CS)C(=O)O [MM108] (H-CRPRLCKHCRPRLC-OH),0.0389 µM,pA2 = 7.41,0.107 µM and 0.191 µM,–,0.14
"CCCC[C@H](NC(=O)[C@H](CCCNC(=N)N)NC(=O)C(C)(C)NC(=O)[C@H](CCCNC(=N)N)NC(=O)[C@H](CS)NC(=O)[C@H](Cc1c[nH]cn1)NC(=O)[C@H](CCCCN)NC(=O)[C@H](CS)NC(=O)[C@H](CCCC)NC(=O)[C@H](CCCNC(=N)N)NC(=O)[C@@H]1CCCN1C(=O)[C@H](CCCNC(=N)N)NC(=O)[C@@H](N)CCC(N)=O)C(=O)N[C@@H](Cc1cc(F)c(F)c(F)c1)C(=O)O [MM262, QRPR-Nle-CKHCR-Aib-R-Nle-(3,4,5-trifluorophenylalanine)] (H-QRPR[Nle]CKHCR[Aib]R[Nle][Phe(3,4,5-F3)]-OH)",0.0295 µM,pA2 = 7.53,0.447 µM and 0.135 µM,0.034 µM,–
"CCCC[C@H](NC(=O)[C@H](CCCNC(=N)N)NC(=O)C(C)(C)NC(=O)[C@H](CCCNC(=N)N)NC(=O)[C@H](CS)NC(=O)[C@H](Cc1c[nH]cn1)NC(=O)[C@H](CCCCN)NC(=O)[C@H](CS)NC(=O)[C@H](CCCC)NC(=O)[C@H](CCCNC(=N)N)NC(=O)[C@@H]1CCCN1C(=O)[C@H](CCCNC(=N)N)NC(=O)[C@@H]1CCC(=O)N1)C(=O)N[C@@H](Cc1cc(F)c(F)c(F)c1)C(=O)O [MM297, pyr-RPR-Nle-CKHCR-Aib-R-Nle-(3,4,5-trifluorophenylalanine)] ([pGlu]RPR[Nle]CKHCR[Aib]R[Nle][Phe(3,4,5-F3)]-OH)",0.0417 µM,pA2 = 7.38,0.832 µM and 0.724 µM,0.055 µM,–
"CCCC[C@H](NC(=O)[C@H](CCCNC(=N)N)NC(=O)C(C)(C)NC(=O)[C@H](CCCNC(=N)N)NC(=O)[C@H](CS)NC(=O)[C@H](Cc1c[nH]cn1)NC(=O)[C@H](CCCCN)NC(=O)[C@H](CC)NC(=O)[C@H](CCCC)NC(=O)[C@H](CCCNC(=N)N)NC(=O)[C@@H]1CCCN1C(=O)[C@H](CCCNC(=N)N)NC(=O)[C@@H](N)CS)C(=O)N[C@@H](Cc1cc(F)c(F)c(F)c1)C(=O)O [MM298, CRPR-Nle-Abu-KHCR-Aib-R-Nle-(3,4,5-trifluorophenylalanine)] (H-CRPR[Nle][Abu]KHCR[Aib]R[Nle][Phe(3,4,5-F3)]-OH)",0.0174 µM,pA2 = 7.76,0.0257 µM and 0.0759 µM,0.016 µM,–

# The next lines start with results.
Kb (human apelin receptor [1]),DRx β-Arrestin pA2 (human apelin receptor [1]),Kb (human apelin receptor [2]),Ki (human apelin receptor [3]; [4]),SMILES,"Ki (human apelin receptor [3]; Ki (binding affinity at the apelin receptor, Cerep), [Glp65,Nle75,Tyr77][125I]apelin-13) [µM]"
0.00794 µM and 0.00295 µM,–,0.0479 µM and 0.112 µM,0.0061 µM,"CCCC[C@H](NC(=O)[C@H](CCCNC(=N)N)NC(=O)C(C)(C)NC(=O)[C@H](CCCNC(=N)N)NC(=O)[C@H](CC)NC(=O)[C@H](Cc1c[nH]cn1)NC(=O)[C@H](CCCCN)NC(=O)[C@H](CS)NC(=O)[C@H](CCCC)NC(=O)[C@H](CCCNC(=N)N)NC(=O)[C@@H]1CCCN1C(=O)[C@H](CCCNC(=N)N)NC(=O)[C@@H](N)CS)C(=O)N[C@@H](Cc1cc(F)c(F)c(F)c1)C(=O)O [MM299, CRPR-Nle-CKH-Abu-R-Aib-R-Nle-(3,4,5-trifluorophenylalanine)] (H-CRPR[Nle]CKH[Abu]R[Aib]R[Nle][Phe(3,4,5-F3)]-OH)",–
–,–,0.251 µM and 0.145 µM,0.19 µM and 0.16 µM,"CCCC[C@H](NC(=O)[C@H](CCCNC(=N)N)NC(=O)C(C)(C)NC(=O)[C@H](CCCNC(=N)N)NC(=O)[C@H](CC)NC(=O)[C@H](Cc1c[nH]cn1)NC(=O)[C@H](CCCCN)NC(=O)[C@H](CS)NC(=O)[C@H](CCCC)NC(=O)[C@H](CCCNC(=N)N)NC(=O)[C@@H]1CCCN1C(=O)[C@H](CCCNC(=N)N)NC(=O)[C@H](C)N)C(=O)N[C@@H](Cc1cc(F)c(F)c(F)c1)C(=O)O [MM312, ARPR-Nle-CKH-Abu-R-Aib-R-Nle-(3,4,5-trifluorophenylalanine)] (H-ARPR[Nle]CKH[Abu]R[Aib]R[Nle][Phe(3,4,5-F3)]-OH)",–
–,–,0.219 µM and 0.12 µM,0.053 µM and 0.047 µM,"CCCC[C@H](NC(=O)[C@H](CCCNC(=N)N)NC(=O)C(C)(C)NC(=O)[C@H](CCCNC(=N)N)NC(=O)[C@H](CC)NC(=O)[C@H](Cc1c[nH]cn1)NC(=O)[C@H](CCCCN)NC(=O)[C@H](CS)NC(=O)[C@H](CCCC)NC(=O)[C@H](CCCNC(=N)N)NC(=O)[C@@H]1CCCN1C(=O)[C@H](CCCNC(=N)N)NC(=O)[C@H](C)NC(C)=O)C(=O)N[C@@H](Cc1cc(F)c(F)c(F)c1)C(=O)O [MM313, Ac-ARPR-Nle-CKH-Abu-R-Aib-R-Nle-(3,4,5-trifluorophenylalanine)] (Ac-ARPR[Nle]CKH[Abu]R[Aib]R[Nle][Phe(3,4,5-F3)]-OH)",–
–,–,0.372 µM and 0.195 µM,0.01 µM and 0.0089 µM,"CCCC[C@H](NC(=O)[C@H](CCCNC(=N)N)NC(=O)C(C)(C)NC(=O)[C@H](CCCNC(=N)N)NC(=O)[C@H](CC)NC(=O)[C@H](Cc1c[nH]cn1)NC(=O)[C@H](CCCCN)NC(=O)[C@H](CC)NC(=O)[C@H](CCCC)NC(=O)[C@H](CCCNC(=N)N)NC(=O)[C@@H]1CCCN1C(=O)[C@H](CCCNC(=N)N)NC(=O)[C@H](C)N)C(=O)N[C@@H](Cc1cc(F)c(F)c(F)c1)C(=O)O [MM314, ARPR-Nle-Abu-KH-Abu-R-Aib-R-Nle-(3,4,5-trifluorophenylalanine)] (H-ARPR[Nle][Abu]KH[Abu]R[Aib]R[Nle][Phe(3,4,5-F3)]-OH)",–
–,–,0.00776 µM and 0.00302 µM,0.0027 µM and 0.003 µM,"CCCCCCCCCCCCCC(=O)N[C@@H](C)C(=O)N[C@@H](CCCNC(=N)N)C(=O)N1CCC[C@H]1C(=O)N[C@@H](CCCNC(=N)N)C(=O)N[C@@H](CCCC)C(=O)N[C@@H](CC)C(=O)N[C@@H](CCCCN)C(=O)N[C@@H](Cc1c[nH]cn1)C(=O)N[C@@H](CC)C(=O)N[C@@H](CCCNC(=N)N)C(=O)NC(C)(C)C(=O)N[C@@H](CCCNC(=N)N)C(=O)N[C@@H](CCCC)C(=O)N[C@@H](Cc1cc(F)c(F)c(F)c1)C(=O)O [MM315, Myristoyl-ARPR-Nle-Abu-KH-Abu-R-Aib-R-Nle-(3,4,5-trifluorophenylalanine)] (Myristoyl-ARPR[Nle][Abu]KH[Abu]R[Aib]R[Nle][Phe(3,4,5-F3)]-OH)",–
–,–,0.0132 µM and 0.0389 µM,0.0028 µM and 0.003 µM,"CCCCCCCCCCCCCC(=O)N[C@@H](C)C(=O)N[C@@H](CCCNC(=N)N)C(=O)N1CCC[C@H]1C(=O)N[C@@H](CCCNC(=N)N)C(=O)N[C@@H](CCCC)C(=O)N[C@@H](CC)C(=O)N[C@@H](Cc1c[nH]cn1)C(=O)N[C@@H](CCCCN)C(=O)N[C@@H](CC)C(=O)N[C@@H](CCCNC(=N)N)C(=O)NC(C)(C)C(=O)N[C@@H](CCCNC(=N)N)C(=O)N[C@@H](CCCC)C(=O)N[C@@H](Cc1cc(F)c(F)c(F)c1)C(=O)O [MM316, Myristoyl-ARPR-Nle-Abu-HK-Abu-R-Aib-R-Nle-(3,4,5-trifluorophenylalanine)] (Myristoyl-ARPR[Nle][Abu]HK[Abu]R[Aib]R[Nle][Phe(3,4,5-F3)]-OH)",–
